Earlier results on two compounds are cited in patent US20210017202A1, “SPHINGOMYELIN-DERIVED LIPID AND METHOD FOR PRODUCING SAME” (NOF CORPORATION, priority 2018, published 2021).

The conditions of the data set: liposome with cholesterol.

Regarding `CCCCCCCCCCCCCCCCCC(=O)OC[C@H](COP(=O)([O-])OCC[N+](C)(C)C)OC(=O)CCCCCCCCCCCCCCCCC` [distearoylglycerophosphocholine], the amount hydrolyzed entry (aqueous solution at pH2, 4 hr) is listed as “about 40%”.

sphingomyelin: for the setting “aqueous solution at pH2, after 20 hr”, the amount of hydrolysate entry is listed as “less than 5%”.
